Measurements reported in US20020013478A1, “Calanolide analogues and methods of their use” (Sarawak Medichem Pharmaceuticals,Inc., priority 1994, published 2002).
pEC50, pIC50: −log10 of the molar value. Values after ≈ are worked out from the molar mass of the structure shown. Like-named read-outs stand apart in the source and are kept apart here.

Key:
[1] = tested on: CEM-SS cells; assay: CEM-SS MTT assay, cytotoxicity (Table I); assay type: cell-based, human
[2] = tested on: 2.2.15 cells; assay: Toxicity in 2.2.15 cells, neutral red dye uptake; assay type: cell-based, human; details: Table II, read-out: HBV IC50
Procedure: Cells of 2.2.15 were grown to confluence in 96-well flat-bottomed tissue culture plates and treated with compounds (in 0.2 mL culture medium/well) as described above. Four concentrations of each compound were assayed, each in triplicate cultures, in 3- to 10-fold steps. Untreated control cultures were maintained on each 96-well plate. On each 96-well plate, wells containing no cells were used to correct for light scattering.

[3] = tested on: HCMV; assay: HCMV semi-automated CPE-inhibition assay in human foreskin fibroblast cells; assay type: cell-based, human cytomegalovirus; details: Table II; for EC50: Human betaherpesvirus 5, Fibroblast
[4] = tested on: human foreskin fibroblast cells; assay: Toxicity run with the HCMV assay, human foreskin fibroblast cells; assay type: cell-based; details: Table II; for IC50: Homo sapiens, Fibroblast
Procedure: (§1) [table] […] The media from the wells is then aspirated and 2 mL of each drug concentration is then added to each well. The cells are then incubated in a CO2 incubator at 37° C. for 72 h. At the end of this time, the media-drug solution is removed and the cells washed. […] The cell-media mixture is then pipetted up and down vigorously to break up the cell suspension, and 0.2 mL of the mixture is added to 9.8 mL of Isoton III and counted using a Coulter Counter. Each sample is counted three times with three replicate wells per sample. The procedure for plating cells and adding drug is the same as for the MTT Assay. After drug addition, the plates are incubated for seven days in a CO2 incubator at 37° C. […] This is incubated in the CO2 incubator for one hour. The dye is aspirated and the cells are washed using a Nunc Plate Washer. […] The plates are rotated for 15 minutes and the optical densities are read at 550 nm on a plate reader.

[5] = tested on: EBV; assay: EBV assay: superinfection of Raji or Daudi cells with P3HR-1, immunofluorescence for EA and VCA; assay type: cell-based, Epstein-Barr virus; details: Table II; for EC50: human gammaherpesvirus 4
Excerpt: There are two prototypes of infectious EBV. One is exemplified by the virus derived from supernatant fluids of the P3HR-1cell line. This cell line produces nontransforming virus that causes the production of early antigen (EA) after primary infection or superinfection of B cell lines. The other prototype is exemplified by the B-95-8 virus. This virus immortalized cord blood lymphocytes and induced tumors in marmosets.
The virus used in our assays is P3HR-1.
Ramos is an exceptional B cell line derived from Burkitt's lymphoma tumor but containing no detectable EBV genome copies and is EBNA negative. Ramos/AW was obtained by in vitro infection of Ramos with the P3HR-1 virus and contains one resident EBV genome copy/cell. Raji is a Burkitt's lymphoma cell line containing 60 EBV genomes/cell, and will be the primary cell used for screening antiviral activity against EBV EA expression. Daudi is a low level producer that contains 152 EBV genome copies/cell. It spontaneously expresses EBV EA in 0.25%-0.5% of the cells. It will be used in follow-up studies to confirm activity. These cell lines respond to superinfection by EBV by expressing EA(D), EA(R), and VCA. All cell lines are maintained in RPMI-1640 medium supplemented by 10% FCS, L-glutamine and 100 μg/mL gentamicin. The cultures are fed twice weekly and the cell concentration adjusted to 3×10^5/mL. The cells are kept at 37° C. in a humidified atmosphere with 5% CO2.
Cells are infected with the P3HR-1 strain of EBV and the drugs to be tested are added after adsorption (45 minutes at 37° C.) and washing of the cell cultures. The cultures are incubated for two days in complete medium to allow viral gene expression. Following the 48 hr incubation period, the number of cells of each sample are counted and smears made. Monoclonal antibodies to the different EA components and VCA are then added to the cells incubated and washed. This is followed by a fluorescein conjugated rabbit anti-mouse Ig antibody; and the number of fluorescence positive cells in the smears are counted. The total number of cells in the cultures positive for EA or VCA are then calculated and compared.

[6] = tested on: Raji or Daudi cells; assay: Toxicity run with the EBV assay; assay type: cell-based, human; details: Table II; for IC50: Homo sapiens
Excerpt: IC50 (50% inhibitory concentration) is the concentration required to inhibit cell proliferation by 50%

[7] = tested on: VZV; assay: VZV plaque reduction assay in human foreskin fibroblast cells; assay type: cell-based, varicella zoster virus; details: Table II; for EC50: Human alphaherpesvirus 3, Fibroblast
Procedure: Two days prior to use, HFF cells are plated into six-well plates and incubated at 37° C. with 5% CO2 and 90% humidity. On the date of assay, the drug is made up at twice the desired concentration in 2x MEM and then serially diluted 1:5 in 2x MEM using six concentrations of drug. The initial starting concentration is usually 200 gg/mL down to 0.06 μg/mL. The virus to be used is diluted in MEM containing 10% FBS to a desired concentration which will give 20-30 plaques per well. The media is then aspirated from the wells and 0.2 mL of virus is added to each well in duplicate with 0.2 mL of media being added to drug toxicity wells. The plates are then incubated for one hour with shaking every fifteen minutes. After the incubation period, an equal amount of 1% agarose was added to an equal volume of each drug dilution. This will give final drug concentrations beginning with 100 μg/mL and ending with 0.03 μg/mL and a final agarose overlay concentration of 0.5%. The drug agarose mixture is applied to each well in 2 mL volume and the plates then incubated for three days, after which the cells were stained with a 1.5% solution of neutral red. At the end of 4-6hr incubation period, the stain is aspirated, and plaques counted using a stereomicroscope at lOx magnification.
The procedure is essentially the same as for the HSV plaque assay described above with two exceptions:
1. After addition of the drug, the plates are incubated for ten days.
2. On days three and six, an additional 1 mL overlay with equal amounts of 2x MEM and 1% agarose are added.

[8] = tested on: human foreskin fibroblast cells; assay: Toxicity run with the VZV assay, human foreskin fibroblast cells; assay type: cell-based; details: Table II; for IC50: Homo sapiens, Fibroblast
Procedure: as §1

[9] = tested on: HIV-1; details: CEM-SS MTT assay
[10] = tested on: HBV; assay: HBV replication in cultures of 2.2.15 cells, extracellular HBV virion DNA (primary assay); details: for pEC50: read-out: HBV EC50
[11] = tested on: HCMV isolates Towne, AD169, E. Mann, Coffman, C9208; assay: Anti-CMV plaque reduction assay against various laboratory and clinical isolates (Example 40); assay type: cell-based, human cytomegalovirus
Procedure: On the date of assay, the drug is made up at twice the desired concentration in 2x MEM and then serially diluted 1:5 in 2x MEM using six concentrations of drug. The initial starting concentration is usually 200 gg/mL down to 0.06 μg/mL. […] The media is then aspirated from the wells and 0.2 mL of virus is added to each well in duplicate with 0.2 mL of media being added to drug toxicity wells. The plates are then incubated for one hour with shaking every fifteen minutes. […] This will give final drug concentrations beginning with 100 μg/mL and ending with 0.03 μg/mL and a final agarose overlay concentration of 0.5%. The drug agarose mixture is applied to each well in 2 mL volume and the plates then incubated for three days, after which the cells were stained with a 1.5% solution of neutral red. At the end of 4-6hr incubation period, the stain is aspirated, and plaques counted using a stereomicroscope at lOx magnification. The procedure again is nearly the same as for HSV with a few minor changes. […] The assay is incubated for 14 days with the additional 1 mL overlays being applied on days four and eight. The procedure for the liquid overlay plaque assay is similar to that using the agarose overlay. The procedure for adding the virus is the same as for the regular plaque assay. The drugs are made up in a concentration to be used in MEM with 2% FBS. The drugs are not made up at 2x concentration as in the previous assays but are made up at the desired concentration. For HSV-1 and HSV-2 assays, an antibody preparation obtained from Baxter Health Care Corporation is diluted 1:500 and added to the media that the drug is diluted in. For CMV and VZV, no antibody in the overlay is utilized. For the CMV assay, additional medium without new drug is added on day five and allowed to incubate for a total of 10 days. For VZV, additional medium is added on day five and incubated for a total of 10 days. At the end of the incubation period for all of the assays, 2 mL of 1:10 dilution of stock neutral is added to each well incubated for six hours. The liquid is then aspirated off and plaques enumerated using a stereomicroscope. Five calanolide analogues, prepared as described above, were further evaluated for their anti-HCMV activity in plaque reduction assay against various laboratory and clinical isolates (Towne, AD 169, E. Mann, Coffinan, and […]).

SMILES | pIC50 [2] | HCMV EC50 [3] [µg/mL] | HCMV IC50 [4] [µg/mL] | EBV EC50 [5] [µg/mL] | EBV IC50 [6] [µg/mL] | VZV EC50 [7] [µg/mL] | VZV IC50 [8] [µg/mL] | pEC50 ([10]; Table II) | pIC50 ([2]; Homo sapiens) | EC50 [3] [µg/mL] | IC50 [4] [µg/mL] | EC50 [5] [µg/mL] | IC50 [6] [µg/mL] | pEC50 ([10]; Hepatitis B virus) | further results
CCCc1cc(=O)oc2c3c(c4c(c12)OC(C)(C)CC4)OC(C)C(C)C3=O (racemic) [(±)-18a, (±)-10,11-trans4-Propyl-7,8,10,11-tetrahydro-6,6,10,11-tetramethyl-2H,6H,12H-benzo [1,2-b:3,4-b′5,6-b″]tripyran-2,12-dione] | 4.06 | >4.0 | 19.5 | 24.5 | >50 | 15.4 | 33.3 | < 5.00 | – | – | – | – | – | – | pIC50 [1]: 5.04; pEC50 [9]: 5.61; Maximum Protection (%) [9]: 60%
CCCc1cc(=O)oc2c3c(c4c(c12)OC(C)(C)C=C4)OC(C(C)C)C(C)C3=O (racemic) [(+)-15e] | 4.07 | >20 | 75.3 | >50 | >50 | >100 | >100 | < 5.00 | – | – | – | – | – | – | –
CCCc1cc(=O)oc2c3c(c4c(c12)OC(C)(C)C=C4)OC(C)(C)C(C)C3=O (racemic) [(±)-15b, (±)-10,11-Dihydro-6,6,10,10,11-pentamethyl-4-propyl-2H, 6H, 12H-benzo[1,2-b:3,4-b′:5,6-b″]tripyran-2,12-dione] | – | – | – | – | – | – | – | – | 3.51 | > 20 | 52.3 (≈ 137 µM) | > 50 | > 50 | < 5.00 | pIC50 ([1]; Homo sapiens): 4.68; EC50 [7]: > 20 µg/mL; IC50 [8]: 66.7 µg/mL (≈ 174 µM)
CCCc1cc(=O)oc2c3c(c4c(c12)OC(C)(C)C=C4)O[C@H](C)[C@H](C)C3=O [(+)-7a] | – | – | – | – | – | – | – | – | 3.42 | > 4 | 11.6 (≈ 31.5 µM) | > 4 | 11.9 (≈ 32.3 µM) | 5.60 | EC90 ([10]; Hepatitis B virus, read-out: HBV EC90): 11 µM
CCCc1cc(=O)oc2c3c(c4c(c12)OC(C)(C)CC4)OC(C)C(C)C3=O (single isomer, unassigned; (+)) [(+)-18a] | 4.06 | >100 | >100 | >50 | >50 | >100 | >100 | < 5.00 | – | – | – | – | – | – | –
CCCc1cc(=O)oc2c3c(c4c(c12)OC(C)(C)C=C4)OC(C)C(C)C3=O (single isomer, unassigned; (-)) [(−)-7] | 3.49 | >20 | 23.7 | >20 | 23.7 | – | – | < 5.00 | – | – | – | – | – | – | –
CCCc1cc(=O)oc2c1c1c(c3oc(C)c(C)c(=O)c32)C=CC(C)(C)O1 [Compound 5, 6,6,10,11-tetramethyl-4-propyl-2H,6H,12H-benzo[1,2-b:3,4-b′:5,6-b″]tripyran-2,12-dione] | – | – | – | – | – | – | – | – | 2.68 | > 100 | > 100 | > 50 | > 50 | < 5.00 | EC50 [7]: > 20 µg/mL; IC50 [8]: 52.2 µg/mL (≈ 142 µM)
CCCc1cc(=O)oc2c3c(c4c(c12)OC(C)(C)C=C4)O[C@@H](C)[C@H](C)[C@@H]3O [(−)-calanolide B, (-)-Calanolide B] | 3.00 | 2.6 | 78.4 | >50 | >50 | >4.0 | 20.0 | < 5.00 | – | – | – | – | – | – | pEC50 ([11]; isolate AD169): 5.50; pEC50 ([11]; isolate C9208): 5.70; pEC50 ([11]; isolate Coffman): 5.50; pEC50 ([11]; isolate E. Mann): 5.50; pEC50 ([11]; isolate Towne): 5.49
CCCc1cc(=O)oc2c3c(c4c(c12)OC(C)(C)C=C4)OC(CC)C(C)C3=O (racemic) [(±)-15c, (±)-10,11-trans-10,11-Dihydro-10-ethyl-4-propyl-6,6,11-trimethyl-2H,6H,12H-benzo[1,2-b:3,4-b ″]tripyran-2,12-dione] | 3.82 | >20 | 77.6 | >50 | >50 | >20 | 68.0 | < 5.00 | – | – | – | – | – | – | pIC50 [1]: 5.17; Maximum Protection (%) [9]: 47%
